Data: article PMC5442763, “Selective Inhibition of ADAM17 Efficiently Mediates Glycoprotein Ibα Retention During Ex Vivo Generation of Human Induced Pluripotent Stem Cell‐Derived Platelets” (Stem Cells Translational Medicine, 2016)

Assays:
[1] = test system: iPSC platelets, vWF/GPIbα-dependent aggregation; experiment: Flow cytometry-based platelet aggregation assay (ristocetin); assay type: cell-based, human; conditions: 15 µmol/l KP-457 during generation; 2 mg/ml ristocetin; vs. generated in its absence
Protocol: Flow cytometry platelet aggregation assays were performed as recently described. Aliquots of iPSC platelets, imMKCL platelets, or fresh washed human platelets were stained with anti‐CD9‐APC or anti‐CD9‐V450, and CD41a^+ platelets were counted using flow cytometry. Next, aliquots of platelets stained using anti‐CD9‐APC were mixed with platelets stained using anti‐CD9‐V450 at a 1:1 ratio (1–4 ×10^5 cells/ml each) and suspended in Tyrode‐HEPES solution containing […] PPACK (a thrombin inhibitor), 10% filtered human plasma, and 3 mmol/l CaCl2. The mixed platelets were stimulated with 2 mg/ml ristocetin or 100 µmol/l TRAP6 and 50 µmol/l ADP for 10 minutes at 37°C while swirling, fixed, and analyzed using flow cytometry. To quantify platelet aggregation, an index of double‐colored events (%) was calculated using the following formula described elsewhere: […]

imMKCL platelets = experiment: GPIbα retention in imMKCL-derived platelets; assay type: cell-based, human
Protocol: imMKCL expansion and subsequent platelet production were performed as previously reported. Briefly, imMKCLs were cultured in the presence of doxycycline for self‐replication by the expression of three doxycycline‐regulated transgenes: c‐MYC, BMI1, and BCL‐XL. imMKCLs were subsequently cultured for 5 days in the absence of doxycycline to produce platelets by turning the transgenes off, with or without 15 µmol/l KP‐457.
(§1) Flow cytometric analysis was performed as previously described. Briefly, iPSC‐ and ESC‐derived MKs on days 22–24 and platelets in their supernatants were stained with combinations of antibodies for 30 minutes on ice (for MKs) or at room temperature (for platelets). Samples of MKs/platelets were then washed, diluted with staining medium (phosphate‐buffered saline containing 3% fetal bovine serum), and analyzed using flow cytometry (FACSAria; BD). Trucount tubes (BD) were used to quantify the MKs and platelets.
Fig. S4. The inhibitory effect of KP-457 on GPIbα shedding in platelets derived from human ESCs and immortalized megakaryocyte progenitor cell lines (imMKCLs).
Percentages of GPIbα-expressing CD41a+ platelets produced from human ESCs (A) and immortalized megakaryocyte progenitor cell lines (imMKCLs) (B), in the absence or presence of KP-457 (15 µmol/L). * P < 0.05 compared to the vehicle group by student’s t test, N≧3. […]

human MMP9 = target: T1, human MMP9 (Homo sapiens, UniProt P14780); experiment: MMP and ADAM activity assay (fluorescence-based): MMP9; assay type: biochemical; conditions: cell-free fluorescence assay
T1 construct: purchased EMD Millipore
From the text: (§2) Human ADAM17, ADAM10, and MMP17 were from R&D Systems (Minneapolis, MN, http://www.rndsystems.com), and human MMP1, MMP2, MMP3, MMP8, MMP9, MMP13, and MMP14 were from EMD Millipore. MMP1, MMP2, MMP8, MMP9, MMP13, and MMP17 were activated using p‐aminophenylmercuric acetate (Sigma‐Aldrich) before testing. Fluorogenic substrates for measuring activity of ADAM10 and ADAM17 [Nma‐[…](Dnp)r‐NH2, based on the cleavage site of TNF‐α]; MMP1, MMP9, MMP13, and MMP14 [Dnp‐P‐Cha‐GC(Me)HAK(N‐Me‐Abz)‐NH2]; MMP3 [MOCAc‐RPKPVE‐Nva‐WRK(Dnp)‐NH2]; and MMP2, MMP8, and MMP17 [MOCAc‐PLGL‐A2pr(Dnp)‐AR‐NH2] were all provided by Peptide Institute (Osaka, Japan, https://www.peptide.co.jp/en) and used as substrates. In addition, inhibitory activities were measured using LC/MS/MS with a GPIbα‐based substrate peptide ([…]), a C terminal‐based standard peptide ([…]), and an internal standard peptide ([…]). These peptides were synthetized by Scrum (Tokyo, Japan, http://www.scrum‐net.co.jp/english/top_en.htm).

[2] = test system: thrombus formation in NOG mice; experiment: In vivo imaging of thrombus formation by transfused iPSC platelets; parameters: species or system mouse; conditions: 1 × 10^7 CD41a+ iPSC platelets generated with or without KP-457, irradiated NOG mice, laser injury; p = .0556
Protocol: The procedure was identical to that in the previous report. Small vessels (<25 μm in diameter) within mesenteric capillaries of male NOD/SCID/IL‐2Rg‐null (NOG) mice were evaluated. NOG mice were purchased from the Central Institute for Experimental Animals (Kawasaki, Kanagawa, Japan, http://www.ciea.or.jp/en/index.html).

human washed platelets = experiment: CCCP-induced GPIbα shedding from washed platelets; assay type: cell-based; conditions: CCCP-treated human platelets
Protocol: as §1
Washed platelets were prepared as described elsewhere.

platelet aggregation = experiment: Platelet aggregation induced by thrombin or collagen; assay type: cell-based
human ADAM10 = target: T2, human ADAM10 (Homo sapiens, UniProt O14672); experiment: MMP and ADAM activity assay (fluorescence-based): ADAM10; assay type: biochemical; conditions: cell-free fluorescence assay
T2 construct: purchased R&D Systems
Protocol: as §2, with “KP‐457 and GM‐6001 were tested for their ability to inhibit MMP‐ and ADAM‐catalyzed cleavage of substrates in a fluorescence‐based assay. Human” for “Human”

T1 sequence (P14780 107-707 limits assumed): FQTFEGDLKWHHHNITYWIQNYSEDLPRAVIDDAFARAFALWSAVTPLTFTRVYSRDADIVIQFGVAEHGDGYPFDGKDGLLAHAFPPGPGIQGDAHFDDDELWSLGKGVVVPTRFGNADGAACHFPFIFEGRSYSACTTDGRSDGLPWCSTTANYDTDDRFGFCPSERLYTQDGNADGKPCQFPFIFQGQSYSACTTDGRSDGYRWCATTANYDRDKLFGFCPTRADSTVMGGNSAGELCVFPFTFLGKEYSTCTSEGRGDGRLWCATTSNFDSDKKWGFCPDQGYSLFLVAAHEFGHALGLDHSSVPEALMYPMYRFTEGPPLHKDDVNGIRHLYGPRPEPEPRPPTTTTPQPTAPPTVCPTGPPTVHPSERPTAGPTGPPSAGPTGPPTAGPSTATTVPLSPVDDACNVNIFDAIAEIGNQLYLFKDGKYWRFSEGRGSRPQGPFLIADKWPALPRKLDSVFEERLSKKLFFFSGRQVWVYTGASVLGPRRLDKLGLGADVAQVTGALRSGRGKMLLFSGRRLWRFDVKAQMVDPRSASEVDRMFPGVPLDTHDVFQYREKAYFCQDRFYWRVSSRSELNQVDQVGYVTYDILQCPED
T2 sequence (O14672 214-748): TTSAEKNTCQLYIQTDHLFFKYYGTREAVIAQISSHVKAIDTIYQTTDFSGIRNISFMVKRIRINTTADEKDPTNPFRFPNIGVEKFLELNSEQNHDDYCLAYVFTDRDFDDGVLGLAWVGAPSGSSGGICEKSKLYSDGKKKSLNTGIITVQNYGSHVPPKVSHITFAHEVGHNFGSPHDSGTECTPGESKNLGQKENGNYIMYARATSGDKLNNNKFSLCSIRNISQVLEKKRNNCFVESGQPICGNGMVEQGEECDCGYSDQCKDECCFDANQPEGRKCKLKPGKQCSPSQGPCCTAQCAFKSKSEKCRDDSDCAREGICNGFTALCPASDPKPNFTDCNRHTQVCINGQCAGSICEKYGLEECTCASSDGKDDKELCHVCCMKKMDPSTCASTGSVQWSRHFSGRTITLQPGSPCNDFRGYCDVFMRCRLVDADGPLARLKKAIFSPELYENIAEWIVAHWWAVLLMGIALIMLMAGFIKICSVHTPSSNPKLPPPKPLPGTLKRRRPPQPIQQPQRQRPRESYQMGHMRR

Compound: CC#CCOc1ccc(S(=O)(=O)CC(c2ccc(CNS(C)(=O)=O)cc2)N(O)C=O)cc1 (centres unmarked) [KP-457, N‐(2‐{[4‐(but‐2‐yn‐1‐yloxy)phenyl]sulfonyl}‐1‐[4‐(methylsulfonamidomethyl)phenyl]ethyl)‐N‐hydroxyformamide]
- ristocetin-induced vWF/GPIbα-dependent aggregation of iPSC platelets generated with inhibitor [1]: greater aggregation capability
- GPIbα expression on platelets under static culture (imMKCL platelets; 3 days, 37°C, in the presence of KP-457, data not shown): highly maintained
- GPIbα retention in platelets derived from imMKCLs (imMKCL platelets; KP-457 15 µmol/L): consistently observed
- IC50 (human MMP9): 5.41 µM
- iPSC platelets contributing to thrombus formation in vivo [2]: higher number of iPSC platelets contributed to thrombus formation
- potency relative to GM-6001, inhibition of GPIbα shedding in the cellular assay (human washed platelets): 10 times
- effect on platelet aggregation induced by thrombin or collagen (platelet aggregation): no adverse effects
- IC50 (human ADAM10): 0.748 µM
